Experimental data as given in patent US7176163B1, “Pharmacological effect potentiators for pesticides” (Meija Seika Kaisha, Ltd., priority 2000, dated 2007).

Assays:
Poa annua = assay: Herbicidal effect enhancement by PDJ spraying; assay type: in vivo; conditions: Herbie liquid diluted 1/1000 plus PDJ 0.01 ppm; sprayed 5 ml/15 individuals; dry weight of above-ground part after 2 weeks
Procedure: Seeds of Poa annua were sown on commercially available cultivation soil for raising seedlings and after about 2 weeks of cultivation, seedlings of about 6 cm in height were obtained. For each lots, tests were performed in 5 series each with 3 individuals. The herbicide used was Herbie liquid (registered trademark of Meiji Seika Kaisha Limited, 18% Bialaphos containing solution) diluted to 1/1000. PDJ was used as a pharmacological action enhancer and this was added in an amount of 0.01 ppm based on the liquid amount of the herbicide. Application to the plant body was performed by spraying in an amount of 5 ml/15 individuals. After 2 weeks from the application, the dry weight of above-ground part was measured and mortality was calculated in accordance with the following equation and the effect was compared. […] Wilting Mortality={1−(growth amount of applied lot/growth amount of non-applied lot)}×100

[1] = test system: cucumber powdery mildew (Sphaeheca fuliginea); assay: Powdery mildew preventive effect improvement by PDJ spraying; assay type: in vivo; conditions: infection 3 days after application, plaques counted after 10 days, control lot (Benlate without PDJ) = 100
Procedure: Cucumber seedlings were cultivated in the same manner as in Test Example 1 and uniformly sprayed with 0.22 ml per individual of 0.1% Benlate solution (0.05% Benomyl containing solution) mixed with PDJ in an amount of 0.01 ppm or 0.1 ppm based on the amount of Benlate solution. After 3 days from the application of Benlate solution, a spore suspension of cucumber powdery mildew (Sphaeheca fuliginea) prepared to 1.0×10^5 cells/ml was sprayed (0.2 ml per individual) on a first true leaf of each seedling and the seedlings were cultivated in a glass-made chamber. After 10 days, powdery mildew plagues were counted. […] Morbidity=(Average of powdery mildew plaque number on cucumber first true leaf in each treated lot)/(Average of powdery mildew plaque number on cucumber first true leaf in control lot)×100
Here, the control lot means a lot that is treated with a Benlate solution containing no PDJ. Thus, it was confirmed that PDJ spraying further increased the powdery mildew preventive effect of Benomyl.

[2] = test system: cotyledon of cucumber (variety: Yotsuba); assay: Microbicide (Benomyl) absorption enhancement by spraying jasmonic acids; assay type: in vivo
Procedure: In the present test, Benlate (registered trademark, manufactured by DuPont Corp., containing 50% of Benomyl as the main component) was used as microbicide. As a test material, cotyledon of cucumber (variety: Yotsuba) was used and absorption amount of the microbicide (hereinafter, referred to as “Benomyl absorption amount”) was measured. To the cucumber on day 10 after the seeding was uniformly sprayed 0.22 ml per individual of 0.1% Benlate solution (0.05% Benomyl containing solution) that contains methyl jasmonate (hereinafeter, abbreviated as “MeJA”) or n-propyl (2-pentyl-3-oxocyclopentyl)acetate, also named n-propyldihydrojasmonic acid (hereinafter, abbreviated as “PDJ”) and the cucumber was placed in a glass-made chamber. MeJA or PDJ was mixed to make 0.001 ppm, 0.01 ppm, 0.1 ppm, 1.0 ppm, or 5.0 ppm based on the Benlate solution amount and applied simultaneously. After sealing the lid of the chamber, the cucumber was cultivated in an air-conditioned room. As a control, similarly Benlate-treated cucumber seedlings were placed in a separate chamber and cultivated.
After two days of cultivation, the cotyledons were cut off and the surfaces of them were washed carefully with a neutral detergent. The cotyledons were ground and extracted with heating. The treatment of extraction solution and quantitation of Benomyl were carried out by high performance liquid chromatography referring to the quantitation method of Benomyl in Residual Pesticide Standards Handbook (Kagaku Kogyo Nippo, 1995, pp843-845) using 2-methylbenzimidazolecarbamate, which is a metabolite of Benomyl, as an indicator. […] As will be apparent from Table 1, enhancement of the absorption of Benomyl by application of MeJA or PDJ was observed.
Tests on microbicide absorption enhancement were performed in the same manner as in Test Example 1 using the following compounds. Common names and abbreviations of each compound are shown in the brackets. The compounds were synthesized in the same manner as in the examples in Japanese Patent Application Laid-open No. Hei 11-140022. • 1. […] (dihydrojasmonic acid: DJA) • 2. allyl (2-pentyl-3-oxocyclopentyl)acetate (allyl dihydrojasmonate: ADJ) • 3. 2-pentenyl (2-pentyl-3-oxocyclopentyl)acetate (dihydrojasmonic acid-2-pentenyl: PEDJ) • 4. 3-butenyl (2-pentyl-3-oxocyclopentyl)acetate (dihydrojasmonic acid-3-butenyl: BEDJ) • 5. 3-butynyl (2-pentyl-3-oxocyclopentyl)acetate (butynyl dihydrojasmonate : BYDJ)
Each compound was mixed so that it occupies 0.01 ppm based on the Benlate solution and given at the same time. Extraction and quantitation were practiced by the methods described in Test Example 1. The results are shown as relative values of Benomyl absorption amount in each lot to that of control. As a result, as will be apparent from Table 6, enhancement of absorption of Benomyl was confirmed.

cucumber seedlings = assay: Benomyl absorption enhancement by fumigation of methyl jasmonate; assay type: in vivo; conditions: MeJA fumigation 25 μl/m^3, natural diffusion in sealed chamber; seedlings sprayed with 0.1% Benlate solution
Procedure: MeJA was applied as follows. MeJA Stock solution was charged in an open Petri dish (φ60 mm) to 25 μl/m^3, which was placed in a glass-made chamber and then sealed and allowed to naturally diffuse. Then, cucumber seedlings uniformly sprayed with 0.22 ml per individual of 0.1% Benlate solution (0.05% Benomyl containing solution) were placed and sealed. This was cultivated in an air-conditioned room. As a control cucumber seedlings that had been similarly treated with Benlate but not fumigated with MeJA were placed in a separate chamber and cultivated. Extraction was made in the same manner as in Test Example 1 and comparative quantitation in comparison with control lot was made.

cucumber powdery mildew = assay: Powdery mildew preventive effect improvement by methyl jasmonate fumigation; assay type: in vivo, Sphaeheca fuliginea; conditions: MeJA fumigation 25 μl/m^3 after 0.1% Benlate spraying; infection on day 3; control lot (no fumigation) = 100
Procedure: Cucumber seedlings were cultivated in the same manner as in Test Example 2 and uniformly sprayed with 0.22 ml per individual of 0.1% Benlate solution (0.05% Benomyl containing solution). Thereafter, MeJA fumigation was performed as follows. MeJA Stock solution was charged in an open Petri dish (φ60 mm) to 25 μl/m^3, which was placed in a glass-made chamber and then sealed. On day 3 after the initiation of the fumigation, cucumber powdery mildew was infected in the same manner as in Test Example 3 and powdery mildew plaque number was counted. […] The control lot means a lot in which no MeJA fumigation was performed. Thus, it was confirmed that MeJA fumigation further improved the powdery mildew preventive effect of Benomyl.

[3] = 0.001 ppm in 0.1% Benlate solution, sprayed simultaneously, cucumber cotyledons after two days
[4] = 0.01 ppm in 0.1% Benlate solution, sprayed simultaneously, cucumber cotyledons after two days
[5] = 0.1 ppm in 0.1% Benlate solution, sprayed simultaneously, cucumber cotyledons after two days
[6] = 1.0 ppm in 0.1% Benlate solution, sprayed simultaneously, cucumber cotyledons after two days
[7] = Test Example 6: 0.01 ppm based on the Benlate solution, given at the same time

Row | Compound | Relative value (%) of Benomyl absorption amount to that of control lot [2, 3] | Relative value (%) of Benomyl absorption amount to that of control lot [2, 4] | Relative value (%) of Benomyl absorption amount to that of control lot [2, 5] | Relative value (%) of Benomyl absorption amount to that of control lot [2, 6] | Relative value (%) of Benomyl absorption amount to that of control lot [2, 7] | further results
1 | CCCCCC1C(=O)CCC1CC(=O)OCCC (stereo not drawn) [PDJ, n-propyl (2-pentyl-3-oxocyclopentyl)acetate] | 103% | 136% | 118% | 110% | – | Wilting Mortality (Poa annua): 81.2%; Powdery Mildew Morbidity ([1]; PDJ 0.01 ppm in 0.1% Benlate solution): 70; Powdery Mildew Morbidity ([1]; PDJ 0.1 ppm in 0.1% Benlate solution): 88
2 | C=CCCOC(=O)CC1CCC(=O)C1CCCCC (stereo not drawn) [BEDJ, 3-butenyl (2-pentyl-3-oxocyclopentyl)acetate] | – | – | – | – | 155% | –
3 | C=CCOC(=O)CC1CCC(=O)C1CCCCC (stereo not drawn) [ADJ, allyl (2-pentyl-3-oxocyclopentyl)acetate] | – | – | – | – | 145% | –
4 | C#CCCOC(=O)CC1CCC(=O)C1CCCCC (stereo not drawn) [BYDJ, 3-butynyl (2-pentyl-3-oxocyclopentyl)acetate] | – | – | – | – | 130% | –
5 | CCC=CCOC(=O)CC1CCC(=O)C1CCCCC (stereo not drawn) [PEDJ, 2-pentenyl (2-pentyl-3-oxocyclopentyl)acetate] | – | – | – | – | 130% | –
6 | CC/C=C\CC1C(=O)CCC1CC(=O)OC (stereo not drawn) [MeJA] | 96% | 124% | 127% | 142% | – | Relative value (%) of Benomyl absorption amount to that of control lot (cucumber seedlings): 144%; Powdery Mildew Morbidity (cucumber powdery mildew): 76; Relative value (%) of Benomyl absorption amount to that of control lot ([2]; 5.0 ppm in 0.1% Benlate solution, sprayed simultaneously, cucumber cotyledons after two days): 113%
